Results: the Kinase Knowledgebase extract (Sharma et al. 2016)

Key:
[1] = tested on: EGFR (Human), P00533 [Assessment of Proliferation in EGFR DelE746_A750 Mutant Expressing HCC827 Cells]
[2] = tested on: EGFR (Human), P00533 [T790M/L858R]; conditions: nci-h1975
[3] = tested on: EGFR (human), P00533 [WT]; conditions: a431
[4] = biological target: EGFR (human), P00533 [WT]

Chain of EGFR (Human), P00533 [T790M/L858R] (P00533 whole entry T790M/L858R, looked up): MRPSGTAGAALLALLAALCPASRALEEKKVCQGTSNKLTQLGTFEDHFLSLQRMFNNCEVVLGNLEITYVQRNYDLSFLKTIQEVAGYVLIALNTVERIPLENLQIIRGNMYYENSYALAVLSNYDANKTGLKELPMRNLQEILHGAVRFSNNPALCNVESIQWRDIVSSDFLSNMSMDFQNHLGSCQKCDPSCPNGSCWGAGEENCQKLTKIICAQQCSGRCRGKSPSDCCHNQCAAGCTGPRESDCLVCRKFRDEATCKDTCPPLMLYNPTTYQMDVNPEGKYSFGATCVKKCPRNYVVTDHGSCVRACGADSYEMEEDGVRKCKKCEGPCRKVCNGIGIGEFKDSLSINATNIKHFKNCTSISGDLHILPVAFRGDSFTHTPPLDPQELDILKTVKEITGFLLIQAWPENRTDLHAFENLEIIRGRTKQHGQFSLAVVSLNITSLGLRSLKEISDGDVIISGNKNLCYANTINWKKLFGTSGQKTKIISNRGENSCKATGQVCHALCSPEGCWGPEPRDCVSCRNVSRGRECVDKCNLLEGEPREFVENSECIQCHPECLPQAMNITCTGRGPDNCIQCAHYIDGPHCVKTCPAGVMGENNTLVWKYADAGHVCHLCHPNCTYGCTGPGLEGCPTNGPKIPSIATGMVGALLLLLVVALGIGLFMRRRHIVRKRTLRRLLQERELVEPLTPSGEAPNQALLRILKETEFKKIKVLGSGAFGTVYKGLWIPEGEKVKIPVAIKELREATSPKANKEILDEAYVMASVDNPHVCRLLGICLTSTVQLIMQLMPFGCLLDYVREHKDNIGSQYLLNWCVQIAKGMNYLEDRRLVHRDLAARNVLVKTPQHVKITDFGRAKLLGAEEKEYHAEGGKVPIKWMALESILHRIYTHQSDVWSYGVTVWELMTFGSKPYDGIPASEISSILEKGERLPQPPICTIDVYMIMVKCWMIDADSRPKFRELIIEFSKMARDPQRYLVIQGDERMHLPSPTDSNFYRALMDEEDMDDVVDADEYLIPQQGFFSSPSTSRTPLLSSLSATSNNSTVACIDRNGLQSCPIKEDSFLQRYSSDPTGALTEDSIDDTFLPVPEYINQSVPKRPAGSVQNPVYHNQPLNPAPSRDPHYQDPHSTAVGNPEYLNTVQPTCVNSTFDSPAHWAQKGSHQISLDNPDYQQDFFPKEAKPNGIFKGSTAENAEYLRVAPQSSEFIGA
Chain of EGFR (Human), P00533 [Assessment of Proliferation in EGFR DelE746_A750 Mutant Expressing HCC827 Cells] (P00533 whole entry, looked up, stated change not applied): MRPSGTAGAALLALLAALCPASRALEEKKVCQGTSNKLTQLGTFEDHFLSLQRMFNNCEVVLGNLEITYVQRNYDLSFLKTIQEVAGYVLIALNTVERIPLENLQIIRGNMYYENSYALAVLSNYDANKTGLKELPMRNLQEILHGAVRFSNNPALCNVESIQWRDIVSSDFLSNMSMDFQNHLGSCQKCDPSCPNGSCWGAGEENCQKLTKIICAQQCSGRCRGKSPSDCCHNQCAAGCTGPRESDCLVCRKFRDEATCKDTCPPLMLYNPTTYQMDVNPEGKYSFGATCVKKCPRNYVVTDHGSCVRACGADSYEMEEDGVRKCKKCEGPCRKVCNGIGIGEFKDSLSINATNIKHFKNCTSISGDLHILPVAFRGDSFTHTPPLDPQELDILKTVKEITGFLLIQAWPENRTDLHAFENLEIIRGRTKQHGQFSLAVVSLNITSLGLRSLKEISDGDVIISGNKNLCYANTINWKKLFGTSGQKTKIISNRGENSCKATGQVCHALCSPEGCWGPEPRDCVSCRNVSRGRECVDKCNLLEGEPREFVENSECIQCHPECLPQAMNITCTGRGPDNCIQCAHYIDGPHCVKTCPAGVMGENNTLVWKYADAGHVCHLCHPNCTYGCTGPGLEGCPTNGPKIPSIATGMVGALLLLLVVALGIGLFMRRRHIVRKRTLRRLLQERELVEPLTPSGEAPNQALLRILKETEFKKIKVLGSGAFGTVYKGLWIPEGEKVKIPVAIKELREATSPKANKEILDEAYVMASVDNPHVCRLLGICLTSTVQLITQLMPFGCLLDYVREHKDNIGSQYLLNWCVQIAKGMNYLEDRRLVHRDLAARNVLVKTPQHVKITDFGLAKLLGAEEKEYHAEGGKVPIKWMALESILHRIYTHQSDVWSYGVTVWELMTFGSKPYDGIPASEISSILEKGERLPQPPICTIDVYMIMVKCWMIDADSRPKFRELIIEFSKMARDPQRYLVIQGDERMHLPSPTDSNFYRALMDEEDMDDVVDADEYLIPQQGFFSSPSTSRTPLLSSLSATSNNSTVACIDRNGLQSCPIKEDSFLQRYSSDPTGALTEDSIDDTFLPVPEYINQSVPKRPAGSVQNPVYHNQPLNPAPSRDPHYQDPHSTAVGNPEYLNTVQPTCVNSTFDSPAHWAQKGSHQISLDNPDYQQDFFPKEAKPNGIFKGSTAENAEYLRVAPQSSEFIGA
Chain of EGFR (human), P00533 [WT] (P00533 whole entry, looked up): as the sequence (P00533 whole entry, looked up, stated change not applied) above

SMILES	GI50 [1]	GI50 [2]	GI50 [3]	IC50 [4]
C=CC(=O)Nc1cccc(Oc2nc(Nc3ccc(N4CCN(C5CCCCC5)CC4)cc3)nc3ccsc23)c1	≤ 0.05 µM	≤ 0.05 µM	0.1 to 1 µM	–
C=CC(=O)Nc1cccc(Oc2nc(Nc3ccc(C(=O)NC4CCN(C(C)C)CC4)cc3)nc3ccsc23)c1	≤ 0.05 µM	≤ 0.05 µM	0.1 to 1 µM	–
C=CC(=O)Nc1cccc(Oc2nc(Nc3ccc(N4CCN(C(C)C)CC4)cc3)nc3ccsc23)c1	≤ 0.05 µM	≤ 0.05 µM	0.1 to 1 µM	–
C=CC(=O)Nc1cccc(Oc2nc(Nc3ccc(N4CCN(C)CC4)cc3)nc3ccoc23)c1	≤ 0.05 µM	≤ 0.05 µM	0.1 to 1 µM	–
C=CC(=O)Nc1cccc(Oc2nc(Nc3ccc(N4CCC(N5CCCCC5)CC4)cc3)nc3ccsc23)c1	≤ 0.05 µM	≤ 0.05 µM	–	0.1 to 1 µM
C=CC(=O)Nc1cccc(Oc2nc(Nc3ccc(N4CCN(CC)CC4)cc3)nc3ccsc23)c1	≤ 0.05 µM	≤ 0.05 µM	0.1 to 1 µM	–
C=CC(=O)Nc1cccc(Oc2nc(Nc3ccc(CN(C)C)cc3)nc3ccsc23)c1	≤ 0.05 µM	≤ 0.05 µM	0.1 to 1 µM	–
C=CC(=O)Nc1cccc(Oc2nc(Nc3ccc(CN4CCN(CC)CC4)cc3)nc3ccsc23)c1	≤ 0.05 µM	≤ 0.05 µM	–	–
C=CC(=O)Nc1cccc(Nc2nc(Nc3ccc(OCCCN(C)C)cc3)nc3ccsc23)c1	0.05 to 0.1 µM	0.05 to 0.1 µM	–	–
C=CC(=O)Nc1cccc(Oc2nc(Nc3ccc(N4CCC(N5CCCC5)CC4)cc3)nc3ccsc23)c1	≤ 0.05 µM	≤ 0.05 µM	–	–
C=CC(=O)Nc1cccc(Oc2nc(Nc3ccc(C(=O)NC)cc3)nc3ccsc23)c1	0.05 to 0.1 µM	0.05 to 0.1 µM	–	–
C=CC(=O)Nc1cccc(Oc2nc(Nc3ccc(C(C)=O)cc3)nc3ccsc23)c1	≤ 0.05 µM	≤ 0.05 µM	–	–
C=CC(=O)Nc1ccc(F)c(Nc2nc(Nc3ccc(N4CCN(C)CC4)c(F)c3)nc3ccsc23)c1	≤ 0.05 µM	≤ 0.05 µM	–	–
C=CC(=O)Nc1cccc(Oc2nc(Nc3ccc(N4CCC(n5ccnc5)C4)cc3)nc3ccsc23)c1 (centres undefined)	≤ 0.05 µM	≤ 0.05 µM	–	–
C=CC(=O)Nc1cccc(Oc2nc(Nc3ccc(C(=O)N4CCN(CC)CC4)c(Cl)c3)nc3ccsc23)c1	≤ 0.05 µM	≤ 0.05 µM	–	–
C=CC(=O)Nc1cccc(Oc2nc(Nc3ccc(CN4CCN(C5CCN(C)CC5)CC4)c(Cl)c3)nc3ccsc23)c1	0.05 to 0.1 µM	≤ 0.05 µM	–	–
C=CC(=O)Nc1cccc(Oc2nc(Nc3ccc(N4CCN(C)CC4)c(F)c3OC)nc3ccsc23)c1	0.05 to 0.1 µM	≤ 0.05 µM	–	–
C=CC(=O)Nc1cccc(Oc2nc(Nc3ccc(NCCN(C)C)c(F)c3)nc3ccsc23)c1	≤ 0.05 µM	≤ 0.05 µM	–	–
C=CC(=O)Nc1cccc(Oc2nc(Nc3ccc(CN(C)C)cc3C)nc3ccsc23)c1	≤ 0.05 µM	≤ 0.05 µM	–	–
C=CC(=O)Nc1cccc(Oc2nc(Nc3ccc(NC4CCN(C(C)C)CC4)nc3)nc3ccsc23)c1	0.05 to 0.1 µM	0.05 to 0.1 µM	–	–
C=CC(=O)Nc1cccc(Nc2nc(Nc3ccc(CN4CCCCC4)cc3)nc3ccsc23)c1	≤ 0.05 µM	≤ 0.05 µM	–	–
C=CC(=O)Nc1cccc(Oc2nc(Nc3ccc(C(=O)NCCN(C)C)cc3)nc3ccsc23)c1	≤ 0.05 µM	0.1 to 1 µM	–	–
C=CC(=O)Nc1cccc(Oc2nc(Nc3ccc(C(C)N4CCN(CC)CC4)cc3)nc3ccsc23)c1 (centres undefined)	≤ 0.05 µM	≤ 0.05 µM	–	–
C=CC(=O)Nc1cccc(Oc2nc(Nc3ccc(C(=O)N(C)C)c(Cl)c3)nc3ccsc23)c1	0.05 to 0.1 µM	≤ 0.05 µM	–	–

SMILES	GI50 [1]	GI50 [2]	GI50 [3]	IC50 [4]
C=CC(=O)Nc1cccc(Oc2nc(Nc3ccc(CN4CCC(N5CCOCC5)CC4)cc3)nc3ccsc23)c1	≤ 0.05 µM	≤ 0.05 µM	–	–
C=CC(=O)Nc1cccc(Oc2nc(Nc3ccc(OCCOC)cc3)nc3ccsc23)c1	0.05 to 0.1 µM	≤ 0.05 µM	–	–
C=CC(=O)Nc1cccc(Oc2nc(Nc3ccc(CN4CCN(CC5CC5)CC4)cc3)nc3ccsc23)c1	≤ 0.05 µM	≤ 0.05 µM	–	–
C=CC(=O)Nc1cccc(Nc2nc(Nc3ccc(N4CCN(C)CC4)cc3)nc3ccsc23)c1	≤ 0.05 µM	≤ 0.05 µM	–	0.1 to 1 µM
C=CC(=O)Nc1cccc(Nc2nc(Nc3ccc(CN4CCCCC4)cc3OC)nc3ccsc23)c1	0.05 to 0.1 µM	0.05 to 0.1 µM	–	–
C=CC(=O)Nc1cccc(Oc2nc(Nc3ccc(CP(=O)(OC)OC)cc3)nc3ccsc23)c1	≤ 0.05 µM	≤ 0.05 µM	–	–
C=CC(=O)Nc1cccc(Oc2nc(Nc3ccc(S(=O)(=O)NC4CC4)cc3)nc3ccsc23)c1	0.05 to 0.1 µM	≤ 0.05 µM	–	–
C=CC(=O)Nc1cccc(Oc2nc(Nc3ccc(N4CC[C@@H](n5ccnc5)C4)cc3)nc3ccsc23)c1	0.05 to 0.1 µM	≤ 0.05 µM	–	–
C=CC(=O)Nc1cccc(Oc2nc(Nc3ccc(N4CCN(C(=O)N5CCOCC5)CC4)cc3)nc3ccsc23)c1	≤ 0.05 µM	0.05 to 0.1 µM	–	–
C=CC(=O)Nc1cccc(Oc2nc(Nc3ccc(O)cc3)nc3ccsc23)c1	0.1 to 1 µM	0.1 to 1 µM	–	–
C=CC(=O)Nc1cccc(Oc2nc(Nc3ccc(OCCN4CCOCC4)c(OC)c3)nc3ccsc23)c1	≤ 0.05 µM	≤ 0.05 µM	–	–
C=CC(=O)Nc1cccc(Oc2nc(Nc3ccc(N4CCC(CN5CCCCC5)CC4)cc3)nc3ccsc23)c1	≤ 0.05 µM	≤ 0.05 µM	–	–
C=CC(=O)Nc1cccc(Oc2nc(Nc3ccc(OCCN4CCOCC4)c(F)c3)nc3ccsc23)c1	0.05 to 0.1 µM	≤ 0.05 µM	–	–
C=CC(=O)Nc1cccc(Oc2nc(Nc3ccc(CN4CCOCC4)cc3)nc3ccsc23)c1	0.05 to 0.1 µM	≤ 0.05 µM	–	–
C=CC(=O)Nc1cccc(Nc2nc(Nc3ccc(CCN4CCN(C)CC4)cc3)nc3ccsc23)c1	0.05 to 0.1 µM	≤ 0.05 µM	–	–
C=CC(=O)Nc1cccc(Oc2nc(Nc3ccc(OCCN(C)C)cc3)nc3ccsc23)c1	≤ 0.05 µM	≤ 0.05 µM	–	–
C=CC(=O)Nc1cccc(Oc2nc(Nc3ccc(NC(=O)CCN4CCCC4)cc3)nc3ccsc23)c1	≤ 0.05 µM	≤ 0.05 µM	–	–
C=CC(=O)Nc1cccc(Oc2nc(Nc3ccc(C(=O)OCCCN(C)C)cc3)nc3ccsc23)c1	0.05 to 0.1 µM	0.05 to 0.1 µM	–	–
C=CC(=O)Nc1cccc(Sc2nc(Nc3ccc(N4CCOCC4)c(F)c3)nc3ccsc23)c1	≤ 0.05 µM	≤ 0.05 µM	–	–
C=CC(=O)Nc1cccc(Oc2nc(Nc3ccc(C(=O)NCCN4CCCC4)cc3)nc3ccsc23)c1	≤ 0.05 µM	≤ 0.05 µM	–	–
C=CC(=O)Nc1cccc(Oc2nc(Nc3ccc(N4CCN(C)CC4)c(C)c3)nc3ccsc23)c1	≤ 0.05 µM	≤ 0.05 µM	–	–
C=CC(=O)Nc1cccc(Oc2nc(Nc3ccc(C(=O)NC4CCN(C)CC4)c(Cl)c3)nc3ccsc23)c1	≤ 0.05 µM	≤ 0.05 µM	–	–
C=CC(=O)Nc1cccc(Oc2nc(Nc3ccc(N4CCC(CO)CC4)cc3)nc3ccsc23)c1	≤ 0.05 µM	0.05 to 0.1 µM	–	–
C=CC(=O)Nc1cccc(Oc2nc(Nc3ccc(N4CCNCC4)c(Cl)c3)nc3ccsc23)c1	≤ 0.05 µM	≤ 0.05 µM	–	–

SMILES	GI50 [1]	GI50 [2]	GI50 [3]	IC50 [4]
C=CC(=O)Nc1cccc(Oc2nc(Nc3ccc(OCCN4CCOCC4)cc3)nc3ccsc23)c1	≤ 0.05 µM	≤ 0.05 µM	–	–
C=CC(=O)Nc1cccc(Oc2nc(Nc3ccc(CS(C)(=O)=O)cc3)nc3ccsc23)c1	≤ 0.05 µM	≤ 0.05 µM	–	–
C=CC(=O)Nc1cccc(Oc2nc(Nc3ccc(N4CC(C)N(C)C(C)C4)cc3)nc3ccsc23)c1 (centres undefined)	≤ 0.05 µM	≤ 0.05 µM	–	–
C=CC(=O)Nc1cccc(Oc2nc(Nc3ccc(N4CCN(CCO)CC4)cc3)nc3ccsc23)c1	≤ 0.05 µM	≤ 0.05 µM	–	–
C=CC(=O)Nc1cccc(Oc2nc(Nc3ccc(OCCN(C)C)c(F)c3)nc3ccsc23)c1	≤ 0.05 µM	≤ 0.05 µM	–	–
C=CC(=O)Nc1cccc(Oc2nc(Nc3ccc(N4CCN(C)CC4)cn3)nc3ccsc23)c1	≤ 0.05 µM	≤ 0.05 µM	–	–
C=CC(=O)Nc1cccc(Oc2nc(Nc3ccc(N4CCC(CN(C)C)CC4)cc3)nc3ccsc23)c1	≤ 0.05 µM	≤ 0.05 µM	–	–
C=CC(=O)Nc1cccc(Oc2nc(Nc3ccc(S(=O)(=O)NCCN(C)C)cc3)nc3ccsc23)c1	≤ 0.05 µM	≤ 0.05 µM	–	–
C=CC(=O)Nc1cccc(Oc2nc(Nc3ccc(CCS(C)(=O)=O)cc3)nc3ccsc23)c1	0.05 to 0.1 µM	≤ 0.05 µM	–	–
C=CC(=O)Nc1cccc(Oc2nc(Nc3ccc(N4CCN(S(=O)(=O)N(C)C)CC4)cc3)nc3ccsc23)c1	0.05 to 0.1 µM	0.05 to 0.1 µM	–	–
C=CC(=O)Nc1cccc(Oc2nc(Nc3ccc(N4CCN(CCO)CC4)cn3)nc3ccsc23)c1	≤ 0.05 µM	0.05 to 0.1 µM	–	–
C=CC(=O)Nc1cccc(Oc2nc(Nc3ccc(N4CCOCC4)c(F)c3)nc3ccsc23)c1	≤ 0.05 µM	≤ 0.05 µM	–	–
C=CC(=O)Nc1cccc(Oc2nc(Nc3ccc(NCCN(C)C)cc3)nc3ccsc23)c1	≤ 0.05 µM	0.1 to 1 µM	–	–
C=CC(=O)Nc1cccc(Oc2nc(Nc3ccc(NC(=O)N4CCN(C)CC4)cc3)nc3ccsc23)c1	0.05 to 0.1 µM	≤ 0.05 µM	–	–
C=CC(=O)Nc1cccc(Oc2nc(Nc3ccc(C(=O)NCCN4CCCC4)cc3OC)nc3ccsc23)c1	≤ 0.05 µM	0.05 to 0.1 µM	–	–
C=CC(=O)Nc1cccc(Oc2nc(Nc3ccc(N4CCN(C(C)(C)C)CC4)cc3)nc3ccsc23)c1	≤ 0.05 µM	≤ 0.05 µM	–	–
C=CC(=O)Nc1cccc(Oc2nc(Nc3ccc(N4CCC(n5ccnc5)CC4)cc3)nc3ccsc23)c1	≤ 0.05 µM	≤ 0.05 µM	–	–
C=CC(=O)Nc1cccc(Oc2nc(Nc3ccc(N4CCN(C(C)C)CC4)cc3)nc3ccoc23)c1	≤ 0.05 µM	≤ 0.05 µM	0.1 to 1 µM	–
C=CC(=O)Nc1cccc(Oc2nc(Nc3ccc(N4CCN(S(C)(=O)=O)CC4)c(F)c3)nc3ccsc23)c1	≤ 0.05 µM	≤ 0.05 µM	–	–
C=CC(=O)Nc1cccc(Oc2nc(Nc3ccc(CN4CCN(C5CCN(C)CC5)CC4)cc3)nc3ccsc23)c1	≤ 0.05 µM	≤ 0.05 µM	–	–
C=CC(=O)Nc1cccc(Oc2nc(Nc3ccc(CCN4CCCCC4)cc3)nc3ccsc23)c1	≤ 0.05 µM	≤ 0.05 µM	–	–
C=CC(=O)Nc1cccc(Oc2nc(Nc3ccc(C4CCN(CC)CC4)cc3)nc3ccsc23)c1	≤ 0.05 µM	≤ 0.05 µM	–	–
